This is an account of results in patent US5952501A, “Certain tricyclic substituted diazabicylo[3.2.1] octane derivatives” (priority 1995, dated 1999).

Where two headings read alike, the source gives them in different places.

The conditions of data set [1]: cited from earlier work.
Data set [2] has as its system stereotypy:hyperactivity. In words: stereotypy:hyperactivity ED50 ratio (typical versus atypical neuroleptic profile). It is filed as in vivo, male Sprague-Dawley rats. The following applies: for Ratio: stereotypy:hyperactivity ED50 ratio, greater than ten considered clozapine like atypical; for neuroleptic profile: in words, stereotypy versus hyperactivity models. The source says: The ratios of the ED50 's determined in the assay systems described above are predictive of typical versus atypical profiles for potential neuroleptic candidates.
A compound encompassed within the disclosure of French patent application No. 71.27825 was synthesized and evaluated using the assays described above. This prior art compound is designated Compound A for purposes of comparison and has the formula: [drawing 12]

For data set [3], the system named is apomorphine-induced stereotypy. Put plainly: Antagonism of Apomorphine-Induced Stereotypy. The following applies: Rattus norvegicus, sc, 1 h, read-out: ED50 Stereotypy.
The subject of data set [4] is amphetamine-induced hyperactivity. The following applies: Rattus norvegicus, sc, 1 h, read-out: ED50 Hyperactivity.

For the compound `CCN1CCCC1CNC(=O)c1cc(S(N)(=O)=O)ccc1OC` (stereo not shown) [sulpiride], the “incidence of extrapyramidal side effects” value in data set [1] (in vivo) is reported as “lesser incidence of extrapyramidal side effects than classical neuroleptics”.
Regarding `CN1C2CCC1CN(C1Cc3cc(Cl)ccc3Oc3ccccc31)C2.O=C(O)/C=C\C(=O)O` (stereo not shown) [Compound 1, 3-(2-Chloro-10,11-dihydro-dibenzo[b,f]oxepin-10-yl)-8-methyl-3,8-diazabicyclo(3.2.1)octane monomaleate], the Ratio in data set [2] was over 48. Further, the ED50 (usually the midpoint of the dose-response relation) in data set [3] was over 40 mg/kg; in data set [4], 0.84 mg/kg.
For `Cc1ccc2c(c1)CC(N1CC3CCC(C1)N3C)c1ccccc1O2.O=C(O)/C=C\C(=O)O` (stereo not shown) [Compound 2, 3-(2-Methyl-10,11-dihydro-dibenzo[b,f]oxepin-10-yl)-8-methyl-3,8-diazabicyclo(3.2.1)octane monomaleate] the same measures were 31, 12.7 mg/kg and 0.41 mg/kg.
Take `CN1CCN(C2=Nc3cc(Cl)ccc3Nc3ccccc32)CC1` [Clozapine]: in data set [2], the neuroleptic profile result is reported as “clozapine-like atypical antipsychotic profiles” and the Ratio amounted to 18. Besides, the median effective dose (ED50) in data set [3] worked out at 26.9 mg/kg. Further, the ED50 in data set [4] amounted to 1.49 mg/kg. In addition, the “incidence of extrapyramidal side effects” value in data set [1] (in words, than classical neuroleptics, background) was “lesser incidence of extrapyramidal side effects than classical neuroleptics”.
As for `CCN1CCC[C@H]1CNC(=O)c1c(O)c(Cl)cc(Cl)c1OC` [Raclopride], in data set [2], the Ratio is given as 0.92. Besides, the 50% effective dose (ED50) in data set [3] turned out to be 0.044 mg/kg; in data set [4], 0.048 mg/kg.
Consider `CN1C2CCC1CN(C1Cc3ccccc3Oc3ccc(Cl)cc31)C2` (stereo not shown) [Prior Art Cpd A], for which, in data set [2], the neuroleptic profile entry is listed as “typical neuroleptic profile which is comparable to conventional neuroleptic agents” and the Ratio is 3.1. In data set [3], the ED50 was found to be 0.69 mg/kg. In addition, in data set [4], the ED50 is 0.22 mg/kg.
Take `O=C(CCCN1CCC(O)(c2ccc(Cl)cc2)CC1)c1ccc(F)cc1` [Haloperidol]: the Ratio in data set [2] amounted to 0.94. Besides, the ED50 in data set [3] came to 0.036 mg/kg; in data set [4] it was 0.038 mg/kg.
The like results for `CN1C2CCC1CN(C1Cc3cc(Br)ccc3Oc3ccccc31)C2.O=C(O)/C=C\C(=O)O` (stereo not shown) [Compound 3, 3-(2-Bromo-10,11-dihydro-dibenzo[b,f]oxepin-10-yl)-8-methyl-3,8-diazabicyclo(3.2.1)octane monomaleate] were, in that order, over 10, over 22 mg/kg and 2.15 mg/kg.
For the compound `CN1CCN([C@@H]2Cc3ccccc3Sc3ccc(Cl)cc32)CC1` [R-Octoclothepin], the Ratio in data set [2] stood at 4.4. The median effective dose (ED50) in data set [3] came out at 0.18 mg/kg; in data set [4], 0.8 mg/kg.
